This is an account of results in US8232067B2, “Disrupting FCRN-albumin interactions” (Brigham & Women's Hospital, Inc., priority 2009, dated 2012).

The test system of one data set is Balb/c mice. Nature of the data set: Mortality assay (1). It is filed as in vivo. The note with it: 12 mg of acetaminophen; mice deficient in FcRn compared to wild-type Balb/c mice. The method, then: Wild-type Balb/c mice and Balb/c mice deficient in FcRn were administered 12 mg of acetaminophen. The dose administered is equivalent to 42 g in a 70 kg human (84 tabs of 500 mg extra strength Tylenol™ (acetaminophen)).

Data set [1] is described as follows: Serum and bile measurements after tail vein infusion (ELISA). It is filed as in vivo. The conditions noted are these: FcRn deficient mice vs wild-type, 24 hours after infusion. The method, then: Human IgG and rat albumin were administered via the tail vein to wild-type (WT) or FcRn deficient (−/−) mice 24 hours prior to the harvest of serum and bile. For serum and bile measurements, mice were euthanized before blood was removed via the heart and the bile was removed via the gallbladder. Concentration of IgG and albumin were measured by ELISA. Similar results were obtained from bile collected via common bile duct cannulation.
After 24 hours, blood/serum and gallbladder bile were removed as described in Example 1.

For `CC(=O)Nc1ccc(O)cc1` [acetaminophen], in the data set with Balb/c mice, the mortality entry is “decreased mortality”.
As to “rat albumin: Rat serum albumin administered via the tail vein to mice”, the “levels of rat albumin in the bile” value in data set [1] was “elevated levels”.
